Experimental data published in DBAASP.
Converted amounts (≈) assume the structure as drawn. Values belong to the compound of their own block, whether it stands above or below them.

Experiments:
Assay in all cases: ≥ marks a high value that may be exact or a test limit, other limits are often not marked, values filed in µg/mL are converted to µM
[1] = test system: Streptococcus pyogenes M1T1 5448
[2] = test system: Pseudomonas aeruginosa PAO1
Escherichia coli BL21 = test system: Escherichia coli BL21
Escherichia coli UB1005 = test system: Escherichia coli UB1005
Pseudomonas aeruginosa = test system: Pseudomonas aeruginosa
Salmonella typhimurium = test system: Salmonella typhimurium
Escherichia coli 55B5 = test system: Escherichia coli 55B5
[3] = test system: Pseudomonas aeruginosa H547
[4] = test system: Pseudomonas aeruginosa K799
[5] = test system: Pseudomonas aeruginosa Z61
[6] = test system: Pseudomonas aeruginosa H744
[7] = test system: Salmonella enterica subsp. enterica serovar Typhimurium ATCC 14028s
[8] = test system: Escherichia coli ATCC 25922
Escherichia coli = test system: Escherichia coli
[9] = test system: Staphylococcus aureus ATCC 29213
[10] = test system: Staphylococcus aureus ATCC 43300
Salmonella sp. = test system: Salmonella sp.
[11] = test system: Salmonella enterica subsp. enterica serovar Enteritidis
Yersinia enterocolitica = test system: Yersinia enterocolitica
[12] = test system: Pseudomonas aeruginosa ATCC 27853
[13] = test system: Stenotrophomonas maltophilia ATCC 13637
[14] = test system: Klebsiella pneumoniae ESBL 61962
Pseudomonas aeruginosa 9 = test system: Pseudomonas aeruginosa 9
[15] = test system: Pseudomonas aeruginosa 198
[16] = test system: Pseudomonas aeruginosa PAO1 H103
[17] = test system: Escherichia coli ESBL 64771
[18] = test system: Pseudomonas aeruginosa LES400
[19] = test system: Enterococcus faecalis W61950
[20] = test system: Enterococcus faecalis f43559
[21] = test system: Staphylococcus aureus C623
[22] = test system: Klebsiella pneumoniae ESBL 63575
[23] = test system: Staphylococcus aureus ATCC 25923
[24] = test system: Enterococcus faecium t62764
[25] = test system: Enterococcus faecium mic80
[26] = test system: Pseudomonas aeruginosa H1030
[27] = test system: Pseudomonas aeruginosa H1027
[28] = test system: Pseudomonas aeruginosa 213
[29] = test system: Escherichia coli ESBL 63103
[30] = test system: Enterococcus faecalis ATCC 29212
[31] = test system: Enterobacter cloacae 218R
[32] = test system: Candida albicans ATCC 10231
[33] = test system: Cryptococcus neoformans ATCC 32264
[34] = test system: Staphylococcus aureus USA 300

MIC [1]: 1 µM (≈ 3.04 µg/mL)
MIC [2]: 16 µM (≈ 48.7 µg/mL)
MIC (Escherichia coli BL21): 1 µM (≈ 3.04 µg/mL)
SMILES: CC[C@H](C)[C@H](NC(=O)[C@H](CCCN=C(N)N)NC(=O)CNC(=O)[C@@H](NC(=O)[C@H](CCCCN)NC(=O)[C@H](CCCN=C(N)N)NC(=O)[C@@H](NC(=O)[C@H](Cc1ccc(O)cc1)NC(=O)[C@H](CCCN=C(N)N)NC(=O)[C@H](CCCN=C(N)N)NC(=O)[C@H](CC(C)C)NC(=O)[C@H](CCC(=O)O)NC(=O)[C@H](CCCCN)NC(=O)[C@H](C)NC(=O)[C@@H](NC(=O)[C@H](CCCN=C(N)N)NC(=O)[C@H](CC(N)=O)NC(=O)[C@@H](NC(=O)CNC(=O)[C@H](C)N)[C@@H](C)O)[C@@H](C)CC)[C@@H](C)CC)C(C)C)C(=O)N[C@@H](C)C(=O)N[C@@H](CCCN=C(N)N)C(=O)N[C@@H](CCCCN)C(=O)N[C@@H](CCCCN)C(=O)N[C@@H](Cc1c[nH]c2ccccc12)C(=O)O [AGTNRIAKELRRYIRKVGRIARKKW]

MIC (Escherichia coli UB1005): 12.5 µM (≈ 31 µg/mL)
MIC (Pseudomonas aeruginosa): 12.5 µM (≈ 31 µg/mL)
MIC (Salmonella typhimurium): 10.5 µM (≈ 26.1 µg/mL)
MIC (Escherichia coli 55B5): 10.5 µM (≈ 26.1 µg/mL)
SMILES: CC[C@H](C)[C@H](NC(=O)[C@H](C)N)C(=O)N[C@@H](Cc1cnc[nH]1)C(=O)N[C@@H](CCCCN)C(=O)N[C@@H](CC(C)C)C(=O)N[C@@H](C)C(=O)N[C@@H](Cc1cnc[nH]1)C(=O)N[C@@H](CCCCN)C(=O)N[C@@H](CC(C)C)C(=O)N[C@H](C(=O)N[C@@H](CCCCN)C(=O)N[C@@H](CCCCN)C(=O)N[C@H](C(=O)N[C@@H](CC(C)C)C(=O)N[C@@H](CCCN=C(N)N)C(=O)N[C@@H](C)C(=O)N[C@H](C(=O)N[C@@H](CCCCN)C(=O)N[C@@H](CCCCN)C(=O)N[C@@H](CC(C)C)C(=O)N[C@@H](C)C(=O)N[C@@H](CC(N)=O)C(=O)O)C(C)C)[C@@H](C)O)[C@@H](C)O [AIHKLAHKLTKKTLRAVKKLAN]

MIC [1]: 2 µM (≈ 6.13 µg/mL)
MIC [2]: 64 µM (≈ 196 µg/mL)
MIC [34]: ≥ 128 µM
MIC (Escherichia coli BL21): 16 µM (≈ 49 µg/mL)
SMILES: CC[C@H](C)[C@H](NC(=O)[C@H](Cc1ccccc1)NC(=O)[C@H](C)NC(=O)[C@H](CCCCN)NC(=O)[C@H](CCCCN)NC(=O)CNC(=O)[C@H](CCCN=C(N)N)NC(=O)[C@H](CCCCN)NC(=O)[C@H](CCCN=C(N)N)NC(=O)[C@H](CC(C)C)NC(=O)[C@H](CCC(=O)O)NC(=O)[C@H](CCC(=O)O)NC(=O)[C@H](CC(C)C)NC(=O)[C@H](CC(C)C)NC(=O)[C@H](Cc1ccc(O)cc1)NC(=O)[C@H](CCCCN)NC(=O)[C@@H](NC(=O)[C@H](CC(C)C)NC(=O)[C@H](C)NC(=O)[C@H](CCC(N)=O)NC(=O)[C@H](CCCN=C(N)N)NC(=O)CNC(=O)[C@@H](N)Cc1c[nH]c2ccccc12)[C@@H](C)O)C(=O)N[C@@H](C)C(=O)N[C@@H](Cc1c[nH]c2ccccc12)C(=O)O [WGRQALTKYLLEELRKRGKKAFIAW]

More lines, now with the values behind:

SMILES: CC(C)C[C@H](NC(=O)[C@H](C)NC(=O)[C@H](CC(N)=O)NC(=O)[C@@H]1CCCN1C(=O)CNC(=O)[C@H](CO)NC(=O)[C@H](CC(N)=O)NC(=O)[C@@H](NC(=O)[C@H](C)NC(=O)[C@H](CCCCN)NC(=O)[C@H](CCC(N)=O)NC(=O)[C@H](C)NC(=O)[C@H](CCCCN)NC(=O)[C@H](Cc1c[nH]c2ccccc12)NC(=O)[C@H](Cc1c[nH]c2ccccc12)NC(=O)[C@H](CCCCN)NC(=O)[C@@H](N)CCCCN)C(C)C)C(=O)N[C@@H](CCC(N)=O)C(=O)N[C@H](C(=O)N[C@@H](CC(C)C)C(=O)N[C@@H](C)C(=O)N[C@@H](CCC(N)=O)C(=O)O)[C@@H](C)O [KKWWKAQKAVNSGPNALQTLAQ]
MIC [3]: 25.9 µM (≈ 64 µg/mL)
MIC [4]: 25.9 µM (≈ 64 µg/mL)
MIC (Escherichia coli UB1005): 25.9 µM (≈ 64 µg/mL)
MIC [5]: 25.9 µM (≈ 64 µg/mL)
MIC [6]: 25.9 µM (≈ 64 µg/mL)
MIC [7]: 25.9 µM (≈ 64 µg/mL)

SMILES: CC[C@H](C)[C@H](NC(=O)[C@H](CCC(N)=O)NC(=O)[C@@H](N)CCCN=C(N)N)C(=O)N[C@@H](CCCN=C(N)N)C(=O)N[C@@H](Cc1c[nH]c2ccccc12)C(N)=O [RQIRW]
MIC [8]: > 50 µM
MIC (Escherichia coli): > 50 µM
MIC [9]: > 50 µM
MIC [10]: > 50 µM
MIC (Salmonella sp.): ≥ 50 µM
MIC [11]: ≥ 50 µM
MIC (Yersinia enterocolitica): ≥ 50 µM
MIC [12]: > 50 µM

SMILES: CC(C)C[C@H](NC(=O)[C@H](Cc1c[nH]c2ccccc12)NC(=O)[C@H](Cc1c[nH]c2ccccc12)NC(=O)[C@H](CCCCN)NC(=O)[C@H](Cc1c[nH]c2ccccc12)NC(=O)[C@H](CCCN=C(N)N)NC(=O)[C@H](CCCN=C(N)N)NC(=O)[C@H](Cc1c[nH]c2ccccc12)NC(=O)[C@@H](N)CCCN=C(N)N)C(=O)O [RWRRWKWWL]
MIC [13]: 0.34 µM (≈ 0.5 µg/mL)
MIC [14]: 21 µM (≈ 31 µg/mL)
MIC (Pseudomonas aeruginosa 9): 5.5 µM (≈ 8.1 µg/mL)
MIC [15]: 5.5 µM (≈ 8.1 µg/mL)
MIC [16]: 1.36 µM (≈ 2 µg/mL)
MIC [17]: 1.36 µM (≈ 2 µg/mL)
MIC [18]: 2.65 µM (≈ 3.9 µg/mL)
MIC [19]: ≥ 42.1 µM
MIC [20]: ≥ 42.1 µM
MIC [21]: 1.36 µM (≈ 2 µg/mL)
MIC [22]: 5.02 µM (≈ 7.4 µg/mL)
MIC [23]: 1.36 µM (≈ 2 µg/mL)
MIC [24]: 0.611 µM (≈ 0.9 µg/mL)
MIC [25]: 2.65 µM (≈ 3.9 µg/mL)
MIC [26]: 5.5 µM (≈ 8.1 µg/mL)
MIC [27]: 0.136 µM (≈ 0.2 µg/mL)
MIC [28]: 10.9 µM (≈ 16 µg/mL)
MIC [29]: 2.65 µM (≈ 3.9 µg/mL)
MIC [30]: 10.9 µM (≈ 16 µg/mL)
MIC [31]: 2.65 µM (≈ 3.9 µg/mL)

SMILES: N=C(N)NCCC[C@H](NC(=O)[C@H](CCCNC(=N)N)NC(=O)[C@H](Cc1c[nH]c2ccccc12)NC(=O)[C@H](Cc1c[nH]c2ccccc12)NC(=O)[C@H](Cc1c[nH]c2ccccc12)NC(=O)[C@H](Cc1c[nH]c2ccccc12)NC(=O)[C@H](Cc1c[nH]c2ccccc12)NC(=O)[C@H](CCCCN)NC(=O)[C@H](Cc1c[nH]c2ccccc12)NC(=O)[C@H](Cc1c[nH]c2ccccc12)NC(=O)[C@@H](N)CCCNC(=N)N)C(=O)N[C@@H](Cc1c[nH]c2ccccc12)C(=O)N[C@@H](CCCCN)C(=O)N[C@@H](Cc1c[nH]c2ccccc12)C(=O)N[C@@H](CCCCN)C(=O)N[C@@H](CCCCN)C(N)=O [RWWKWWWWWRRWKWKK]
MIC [8]: > 50 µM
MIC (Escherichia coli): > 50 µM
MIC [9]: > 50 µM
MIC [10]: > 50 µM
MIC (Salmonella sp.): ≥ 50 µM
MIC [11]: 25 µM (≈ 66.9 µg/mL)
MIC (Yersinia enterocolitica): ≥ 50 µM
MIC [32]: 100 µM (≈ 267 µg/mL)
MIC [12]: > 50 µM
MIC [33]: ≥ 200 µM
